Entries after “also recorded” stand apart in the source; their conditions may differ. Ends that are not written are not given here. Peptide text beside a SMILES is read from it. * marks the point of attachment. Cbz = O=C(OCc1ccccc1)*
Columns and labels:
[1] = tested on: ERAD substrate TCR-α; assay: TCR-α level in co-transfected cells; type: cell-based; conditions: co-transfection with TCR-α
Procedure: (§1) Transfections of HT1080, NIH 3T3 and HEK 293T cells were carried out ˜24 hr after plating using Polyfect (Qiagen, Valencia, Calif.) and cells harvested after ˜48 hr. J558 cells were transfected by electroporation using Bio-rad GENE pulser II at settings of 250 v, 950uF. Vector without insert was used to equalize total plasmid. In most experiments 0.15 μg of pEGFP-C1 served as an internal control. For experiments not involving immunoprecipitation, 6×10^5 cells were plated in 6 well plates and cell lysis was with Mammalian Protein Extraction Reagent (Pierce). For immunoprecipitation, 2.4×10^6 cells were seeded in 100 mm dishes and cells were lysed in RIPA buffer (1×PBS, 1% Nonidet P40. 0.5% sodium deoxycholate, 0.1% SDS). Lysis buffers were supplemented with Protease Inhibitor Cocktail (Sigma) and 10 mM iodoacetamide. Supernatants were analyzed after a 10,000×g centrifugation using standard techniques for immunoprecipitation, SDS-PAGE, immunoblotting and ECL. Treatment of cells with MG132 (Sigma) was at 50 μM for eight hr. Cycloheximnide was used at 50 μg/ml. All cells were collected at the end of the six hr chase.
FIG. 9 depicts the stabilization of endogenous TCRα by the G2BD. TCR-α is a subunit of the T cell antigent receptor and an ERAD substrate. TCR-α was stabilized by the region implicated in Ube2G2 binding.
(§2) To test this, GFP fusions of either a minimal E2 binding domain (GFP-574-611) or a more extended region that includes the C-terminus of gp78 (GFP-574-643) were evaluated (FIG. 21A). […] To assess this further, the C-terminal region of gp78 was fused to the eight amino acid Flag tag. […] Mdm2 is a RING finger E3 for both itself and p53 that is neither an ERAD substrate nor known to utilize Ube2G2 as an E2. […] To establish with certainty that the effect observed with expression of the Ube2G2 binding site is a consequence of binding endogenous E2, and not due to other unanticipated effects, cells were co-transfected with increasing amounts of Ube2G2 (FIG. 21C, lanes 3 and 4). […] These findings clearly establish that the isolated E2 binding site has the potential to markedly alter ERAD of CD3-δ. To ensure the effect observed was not peculiar to one substrate, TCR-α was evaluated (FIG. 21D).

[2] = tested on: gp78; assay: gp78 level in transfected cells by immunoblotting; type: cell-based
Procedure: as §1, with “All cells were collected at the end of the six hr chase.” left out
gp78 is degraded in a proteasome-dependent manner, and deletion of the entire cytoplasmic domain results in its stabilization. […] To determine the significance of the RING finger, Cue domain and Ube2G2 binding site on gp78 stability, mutations of each were evaluated within full-length gp78. […]

[3] = tested on: ERAD substrate CD3-δ; assay: CD3-δ level in co-transfected cells by immunoblotting; type: cell-based; conditions: for effect on CD3-δ level (stabilization): co-transfection with CD3-δ, immunoblot
Procedure: as §1
FIG. 7 depicts the stabilization of CD3-δ protein in cells transfected with the G2BD, but not with the G2BD with amino acids 579-584 (of SEQ ID NO:2) mutated. HEK 293T cells were transfected with the ERAD substrate CD3-δ along with the indicated GFP fusions of gp78. The left and right sides are two separate experiments.
as §2

[4] = tested on: Mdm2; assay: Mdm2 level in co-transfected cells; type: cell-based; conditions: cells transfected with CD3-δ and Mdm2
Procedure: as §1
To test this, GFP fusions of either a minimal E2 binding domain (GFP-574-611) or a more extended region that includes the C-terminus of gp78 (GFP-574-643) were evaluated (FIG. 21A). […] To ensure the effect observed was not peculiar to one substrate, TCR-α was evaluated (FIG. 21D).

[5] = biological target: T1, lysine 48-linked (K48) tetra-ubiquitin (Homo sapiens, UniProt P0CG47); assay: Tetra-ubiquitin binding to GST fusions; conditions: anti-ubiquitin immunoblot
T1 construct: 1 μg K48 tetra-ubiquitin produced as described (Piotrowski et al., 1997); made in house
Procedure: GST fusions were purified from E. Coli. Binding was carried out using equi-molar amount of fusion proteins measured by Commassie blue staining. Generally, 20 picomoles/sample were used. In vitro translated E2 was generated by coupled transcription and translation using 35S methionine in either wheat germ or rabbit reticulocyte lysate. Binding assays using in vitro translated E2 was carried out by incubating GST protein pre-bound to Glutathione-sepharose 4B with […] of ^35S-methionine labeled E2 in binding buffer (25 mM Tris-HCl, pH 7.4; 50 mM NaCl, 5 mM DTT; and 0.5% NP-40) overnight at 4° C. Beads were washed with binding buffer and resolved by SDS-PAGE under reducing conditions. Analysis was by Storm PhosphoImager (Applied Biosystems, Foster City, Calif.). Direct binding assays used wild type His6-MmUbc7 (His6-Ube2G2) and Glutathione-sepharose bound GST fusions. Beadbound GST protein was incubated with 100 ng purified His6-MmUbc7 in binding buffer and washed and eluted as above. After transfer to Hybond-P (Amersham Biosciences) binding was assessed with anti-His6 followed by Enhanced Chemiluminescence ECL; Pierce). Ubiquitin binding studies were performed with binding and washing as above using 1 μg K48 tetra-ubiquitin produced as described (Piotrowski et al., 1997). Detection was by anti-ubiquitin immunoblotting.

[6] = biological target: T2, Ube2G2/MmUbc7 (Mus musculus, UniProt P60605); assay: GST pull-down binding of in vitro translated 35S-Met Ube2G2/MmUbc7; set-up: species or system human; conditions: GST fusion pull-down; 35S-Met labeled E2
T2 construct: made in house; host or cells: coupled in vitro transcription/translation in rabbit reticulocyte lysate or wheat germ
T2 sequence (P60605 1-165): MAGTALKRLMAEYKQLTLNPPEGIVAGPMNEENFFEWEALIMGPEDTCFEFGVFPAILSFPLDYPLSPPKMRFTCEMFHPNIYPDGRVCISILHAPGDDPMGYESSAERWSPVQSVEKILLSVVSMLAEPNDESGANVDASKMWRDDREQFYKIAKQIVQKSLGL
Procedure: GST fusions were purified from E. Coli. Binding was carried out using equi-molar amount of fusion proteins measured by Commassie blue staining. Generally, 20 picomoles/sample were used. In vitro translated E2 was generated by coupled transcription and translation using 35S methionine in either wheat germ or rabbit reticulocyte lysate. […] Beads were washed with binding buffer and resolved by SDS-PAGE under reducing conditions. Analysis was by Storm PhosphoImager (Applied Biosystems, Foster City, Calif.). Direct binding assays used wild type His6-MmUbc7 (His6-Ube2G2) and Glutathione-sepharose bound GST fusions. Beadbound GST protein was incubated with 100 ng purified His6-MmUbc7 in binding buffer and washed and eluted as above. After transfer to Hybond-P (Amersham Biosciences) binding was assessed with anti-His6 followed by Enhanced Chemiluminescence ECL; Pierce).
The E2 enzymes were in vitro translated using wheat germ.
GST fusion proteins encoding the regions indicated in FIGS. 3A-3C were evaluated for the ability to bind to Ube2G2/MmUbc7 that had been in vitro transcribed and translated in rabbit reticulocyte lysate. gp78C represents the entire C-terminal cytoplasmic domain of gp78 (amino acid residues 309-643 of SEQ ID NO:2).

[7] = biological target: T3, Myc-Ube2G2 (Mus musculus, UniProt P60605); assay: Co-immunoprecipitation with co-expressed Myc-Ube2G2 in cells; type: cell-based; conditions: anti-Myc IP, anti-GFP IB
T3 construct: expressed in transfected cells; host or cells: HEK 293T
T3 sequence (P60605 1-165): T2 sequence (P60605 1-165)
Procedure: as §1
FIG. 5 depicts the results of immunoprecipitation of Ube2G2 (MmUbc7) from HEK 293T cells co-transfected with a plasmid encoding myc-tagged MmUbc7/Ube2G2 together with s plasmid encoding various forms of gp78. […]

## CC(C)C[C@@H](C=O)NC(=O)[C@H](CC(C)C)NC(=O)[C@H](CC(C)C)NC(=O)OCc1ccccc1 [MG132, reference compound] (Cbz-Leu-Leu-Leu-aldehyde)
[1]
  effect on TCR-α level (stabilization): prevented degradation of TCR-α
[2]
  effect of proteasome inhibitor on gp78 level: stabilized wild type gp78
[3]; cells expressing Flag-tagged gp78 574-643, 2 or 4 μg Ube2G2 plasmid
  reversal of G2BD-induced CD3-δ stabilization by co-transfected Ube2G2: blocked the effect of transfected Ube2G2
[4]
  effect on Mdm2 level (stabilization): led to Mdm2 stabilization

## UBA-Cbl-b: GST fusion of the UBA of the RING finger E3 Cbl-b (NVDAKIAKLMGEGYAFEEVKRALEIAQNNVEVARSILREF; also: GST fusion partner, not in chain) [reference compound]
[5]
  binding of K48 tetra-ubiquitin: binds

## 574-608: GST fusion of amino acids 574-608 of gp78 (SEQ ID NO:2) (SADERQRMLVQRKDELLQQARKRFLNKSSEDDAAS; listed as Homo sapiens)
[6]
  binding to in vitro translated Ube2G2/MmUbc7: sufficient for binding to Ube2G2; also recorded: bound in vitro translated Ube2G2 comparably to the complete gp78 C-terminal tail

## 579-600: GFP fusion of amino acids 579-600 of SEQ ID NO:2 (QRMLVQRKDELLQQARKRFLNK; listed as Homo sapiens)
[7]
  binding of GFP fusion to co-expressed Myc-Ube2G2 in cells: sufficient to bind Ube2G2 in cells

## GFP-574-611E2-m2: GFP fusion of gp78 574-611 with the E2 binding site mutation of residues 579 to 584
[1]
  effect on TCR-α level (stabilization): did not
[3]
  effect on CD3-δ level (stabilization): totally prevented this stabilization
[3]; listed as G2BD with amino acids 579-584 (of SEQ ID NO:2) mutated
  effect on CD3-δ level (stabilization): loss of this effect

Reference: patent US8420776B2, “Ube2G2 binding domain in the ubiquitin ligase gp78 and methods of use thereof” (The United States of America, as Represented by the …, priority 2004, dated 2013)
